Target: T1, chimeric human H3 receptor (Homo sapiens, UniProt Q9Y5N1)
T1 construct: made in house; host or cells: Sf9 insect cells (baculovirus); P2 membrane preparation
Assay: Chimeric human H3 receptor screening GTP binding assay at 4 μM (Example 8)
Assay type: biochemical
Conditions: test compound 4 μM, 1 μM histamine, P2 membranes of Sf9 cells; read-out: % (percent inhibition of agonist-induced GTP-gammaS binding to H3)
Method: This Example illustrates a representative screening assay for evaluating inhibition of histamine-stimulated GTP-gamma^35S binding. Such GTP binding activity can be used to identify H3 antagonists and inverse agonists. A compound analyzed in this assay is referred to herein as a “test compound,” and the initial identification of antagonists and inverse agonists is performed using a test compound concentration of 4 μM.
Four independent baculoviral stocks (one directing the expression of the chimeric human H3 receptor and three directing the expression of each of the three subunits of a heterotrimeric G-protein) are used to infect a culture of Sf9 cells as described above. P2 membranes are prepared as described above, and are resuspended by Dounce homogenization (tight pestle) in GTP binding assay buffer (50 mM Tris pH 7.4, 120 mM NaCl, 5 mM MgCl2, 2 mM EGTA, 1 mg/ml BSA, 0.2 mg/ml bacitracin, 0.02 mg/ml aprotinin, 0.01 mg/ml saponin, 10 μM GDP) and added to assay tubes at a concentration of 35 μg protein/reaction tube. Non-radiolabeled test compounds are added to separate reactions at a concentration of 4 μM along with 1 μM histamine (agonist). Reactions are initiated by the addition of 125 pM GTP-gamma^35S with a final assay volume of 0.20 ml.
After a 60-min incubation at room temperature, reactions are terminated by vacuum filtration over GF/C filters (pre-soaked in 50 mM Tris pH 7.4, 120 mM NaCl plus 0.1% BSA) followed by washing with ice-cold buffer (50 mM Tris pH 7.4, 120 mM NaCl). The amount of receptor-bound (and thereby membrane-bound) GTP-gamma^35S is determined by measuring the bound radioactivity, preferably by liquid scintillation spectrometry of the washed filters. Non-specific binding is determined using 10 uM GTP-gammaS and typically represents less than 5 percent of total binding. After subtraction of non-specific binding, data is expressed as percent inhibition of 1 μM histamine signal.
Neutral antagonists are those test compounds that reduce the histamine-stimulated GTP binding activity towards, but not below, baseline levels. In contrast, in the absence of added histamine, inverse agonists reduce the GTP binding activity of the receptor-containing membranes below baseline. Any test compound that elevates GTP binding activity above baseline in the absence of added histamine in this assay is defined as having agonist activity.

T1 sequence (Q9Y5N1 with tags, fused parts or gaps): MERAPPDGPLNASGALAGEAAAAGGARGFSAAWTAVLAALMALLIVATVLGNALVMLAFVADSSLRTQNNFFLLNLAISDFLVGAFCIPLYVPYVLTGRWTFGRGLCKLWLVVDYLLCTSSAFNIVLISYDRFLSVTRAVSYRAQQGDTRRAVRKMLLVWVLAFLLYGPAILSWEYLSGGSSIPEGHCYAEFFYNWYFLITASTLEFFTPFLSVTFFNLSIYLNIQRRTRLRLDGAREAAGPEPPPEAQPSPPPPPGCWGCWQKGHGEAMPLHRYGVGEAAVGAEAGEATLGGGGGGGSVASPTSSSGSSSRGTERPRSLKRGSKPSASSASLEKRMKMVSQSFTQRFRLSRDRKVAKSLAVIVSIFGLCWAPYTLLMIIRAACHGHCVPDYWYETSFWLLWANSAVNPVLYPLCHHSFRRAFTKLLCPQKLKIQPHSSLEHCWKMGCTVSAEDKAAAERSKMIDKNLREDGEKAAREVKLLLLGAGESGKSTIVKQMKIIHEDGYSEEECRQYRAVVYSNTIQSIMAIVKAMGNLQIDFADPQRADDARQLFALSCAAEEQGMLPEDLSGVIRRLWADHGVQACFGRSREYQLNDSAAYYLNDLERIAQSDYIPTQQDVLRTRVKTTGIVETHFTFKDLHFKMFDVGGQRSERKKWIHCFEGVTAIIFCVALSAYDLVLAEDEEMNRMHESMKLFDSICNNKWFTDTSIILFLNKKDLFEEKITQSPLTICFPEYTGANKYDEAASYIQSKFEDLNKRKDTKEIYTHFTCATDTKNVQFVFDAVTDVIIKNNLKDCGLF

Compound	inhibition at 4 µM
CCN1CCN(C(=O)CN2CCc3c([nH]c4ccccc34)C2)CC1 [Compound 42, 2-[2-(4-Ethylpiperazin-1-yl)-2-oxoethyl]-2,3,4,9-tetrahydro-1H-beta-carboline]	≥ 90%
CN(C)CCCN(C(=O)CN1CCc2c([nH]c3ccccc23)C1)C1CCN(C)CC1 [Compound 61, N-[3-(Dimethylamino)propyl]-N-(1-methylpiperidin-4-yl)-2-(1,3,4,9-tetrahydro-2H-beta-carbolin-2-yl)acetamide]	≥ 90%
CCCCN1CCN(C(=O)CN2CCc3c([nH]c4ccccc34)C2)CC1 [Compound 48, 2-[2-(4-Butylpiperazin-1-yl)-2-oxoethyl]-2,3,4,9-tetrahydro-1H-beta-carboline]	≥ 90%
O=C(CN1CCc2c([nH]c3ccccc23)C1)N1CCN(C2CCCC2)CC1 [Compound 45, 2-[2-(4-Cyclopentylpiperazin-1-yl)-2-oxoethyl]-2,3,4,9-tetrahydro-1H-beta-carboline]	≥ 90%
CC1CCCCN1C1CCN(C(=O)CN2CCc3c([nH]c4ccccc34)C2)CC1 (stereo not drawn) [Compound 34, 2-[2-(2-Methyl-1,4′-bipiperidin-1′-yl)-2-oxoethyl]-2,3,4,9-tetrahydro-1H-beta-carboline]	≥ 90%
CC1CCCC1N1CCN(C(=O)CN2CCc3c([nH]c4ccccc34)C2)CC1 (stereo not drawn) [Compound 38, 2-{2-[4-(2-Methylcyclopentyl)piperazin-l-yl]-2-oxoethyl}-2,3,4,9-tetrahydro-1H-beta-carboline]	≥ 90%
CCN(C(=O)CN1CCc2c([nH]c3ccccc23)C1)C1CCN(C)CC1 [Compound 62, N-(1-Methylpiperidin-4-yl)-N-ethyl-2-(1,3,4,9-tetrahydro-2H-beta-carbolin-2-yl)acetamide]	≥ 90%
O=C(CN1CCc2c([nH]c3ccccc23)C1)N1CCC(N2CCCC2)C1 (stereo not drawn) [Compound 39, 2-[2-(1,3′-Bipyrrolidin-1′-yl)-2-oxoethyl]-2,3,4,9-tetrahydro-1H-beta-carboline]	≥ 90%
CCCN1CCN(C(=O)CN2CCc3c([nH]c4ccccc34)C2)CC1 [Compound 44, 2-[2-(4-propylpiperazin-1-yl)-2-oxoethyl]-2,3,4,9-tetrahydro-1H-beta-carboline]	≥ 90%
CCCCN1CCCN(C(=O)CN2CCc3c([nH]c4ccccc34)C2)CC1 [Compound 47, 2-[2-(4-Butyl-1,4-diazepan-1-yl)-2-oxoethyl]-2,3,4,9-tetrahydro-1H-beta-carboline]	≥ 90%
O=C(CN1CCc2c([nH]c3ccccc23)C1)N1CCN(CCN2CCCCC2)CC1 [Compound 56, 2-{2-Oxo-2-[4-(2-piperidin-1-ylethyl)piperazin-1-yl]ethyl}-2,3,4,9-tetrahydro-1H-beta-carboline]	≥ 90%
CCCN(C(=O)CN1CCc2c([nH]c3ccccc23)C1)C1CCN(C)CC1 [Compound 60, N-(1-Methylpiperidin-4-yl)-N-propyl-2-(1,3,4,9-tetrahydro-2H-beta-carbolin-2-yl)acetamide]	≥ 90%
COCCN(C(=O)CN1CCc2c([nH]c3ccccc23)C1)C1CCN(C)CC1 [Compound 54, N-(2-Methoxyethyl)-N-(1-methylpiperidin-4-yl)-2-(1,3,4,9-tetrahydro-2H-beta-carbolin-2-yl)acetamide]	≥ 90%
O=C(CN1CCc2c([nH]c3ccccc23)C1)N1CCN(C2CCCCC2)CC1 [Compound 41, 2-[2-(4-Cyclohexylpiperazin-1-yl)-2-oxoethyl]-2,3,4,9-tetrahydro-1H-beta-carboline]	≥ 90%
O=C(CN1CCc2c([nH]c3ccccc23)C1)N1CCC(N2CCCC2)CC1 [Compound 52, 2-[2-Oxo-2-(4-pyrrolidin-1-ylpiperidin-1-yl)ethyl]-2,3,4,9-tetrahydro-1H-beta-carboline]	≥ 90%
C=CCN1CCN(C(=O)CN2CCc3c([nH]c4ccccc34)C2)CC1 [Compound 35, 2-[2-(4-Allylpiperazin-1-yl)-2-oxoethyl]-2,3,4,9-tetrahydro-1H-beta-carboline]	≥ 90%
O=C(CN1CCc2c([nH]c3ccccc23)C1)N1CCN(C2CCOCC2)CC1 [Compound 40, 2-{2-Oxo-2-[4-(tetrahydro-2H-pyran-4-yl)piperazin-1-yl]ethyl}-2,3,4,9-tetrahydro-1H-beta-carboline]	≥ 90%
O=C(CN1CCc2c([nH]c3ccccc23)C1)N1CCCN(C2CCC2)CC1 [Compound 37, 2-[2-(4-Cyclobutyl-1,4-diazepan-1-yl)-2-oxoethyl]-2,3,4,9-tetrahydro-1H-beta-carboline]	≥ 90%
CC(c1ccccc1)N1CCN(C(=O)CN2CCc3c([nH]c4ccccc34)C2)CC1 (stereo not drawn) [Compound 59, 2-{2-Oxo-2-[4-(1-phenylethyl)piperazin-1-yl]ethyl}-2,3,4,9-tetrahydro-1H-beta-carboline]	≥ 90%
CN(CCN1CCCC1)C(=O)CN1CCc2c([nH]c3ccccc23)C1 [Compound 63]	≥ 90%
CC(C)CN1CCN(C(=O)CN2CCc3c([nH]c4ccccc34)C2)CC1 [Compound 50, 2-[2-(4-Isobutylpiperazin-1-yl)-2-oxoethyl]-2,3,4,9-tetrahydro-1H-beta-carboline]	≥ 90%
CC(C)N1CCCN(C(=O)CN2CCc3c([nH]c4ccccc34)C2)CC1 [Compound 36, 2-[2-(4-Isopropyl-1,4-diazepan-1-yl)-2-oxoethyl]-2,3,4,9-tetrahydro-1H-beta-carboline]	≥ 90%
O=C(CN1CCc2c([nH]c3ccccc23)C1)N1CCN(CCCN2CCCC2)CC1 [Compound 55, 2-{2-Oxo-2-[4-(3-pyrrolidin-1-ylpropyl)piperazin-1-yl]ethyl}-2,3,4,9-tetrahydro-1H-beta-carboline]	≥ 90%
CN1CCC(N(C)C(=O)CN2CCc3c([nH]c4ccccc34)C2)CC1 [Compound 43]	≥ 90%
O=C(CN1CCc2c([nH]c3ccccc23)C1)N1CCN(CCN2CCCC2)CC1 [Compound 58, 2-{2-Oxo-2-[4-(2-pyrrolidin-1-ylethyl)piperazin-1-yl]ethyl}-2,3,4,9-tetrahydro-1H-beta-carboline]	≥ 90%
CCCN(CC1CC1)C1CCN(C(=O)CN2CCc3c([nH]c4ccccc34)C2)CC1 [Compound 51, N-(Cyclopropylmethyl)-N-propyl-1-(1,3,4,9-tetrahydro-2H-beta-carbolin-2-ylacetyl)piperidin-4-amine]	≥ 90%
O=C(CN1CCc2c([nH]c3ccccc23)C1)N1CCC(N2CCCCC2)CC1 [Compound 53, 2-[2-(1,4′-Bipiperidin-1′-yl)-2-oxoethyl]-2,3,4,9-tetrahydro-1H-beta-carboline]	≥ 90%
O=C(CN1CCc2c([nH]c3ccccc23)C1)N1CCN(CCCN2CCCCC2)CC1 [Compound 57, 2-{2-Oxo-2-[4-(3-piperidin-1-ylpropyl)piperazin-1-yl]ethyl}-2,3,4,9-tetrahydro-1H-beta-carboline]	≥ 90%
CCN(CC)C1CCN(C(=O)CN2CCc3c([nH]c4ccccc34)C2)CC1 [Compound 46, N,N-Diethyl-1-(1,3,4,9-tetrahydro-2H-beta-carbolin-2-ylacetyl)piperidin-4-amine]	≥ 90%
CCN(CC)C1CCN(C(=O)CN2CCc3c([nH]c4ccccc34)C2)C1 (stereo not drawn) [Compound 49, N,N-Diethyl-1-(1,3,4,9-tetrahydro-2H-beta-carbolin-2-ylacetyl)pyrrolidin-3-amine]	≥ 90%

— US20110002855A1 (NEUROGEN CORPORATION, priority 2007, published 2011)
